Earlier results, collected in US20220056154A1, “Bispecific Antibody Compositions and Methods for Treating COVID-19” (priority 2020, published 2022).

Target: hACE2 (Homo sapiens, UniProt Q9BYF1)
Settings: 10 μM lisinopril, 10 μM captopril, 10 μM enalaprilat, 100 μM benzyl succinate, 10 mM EDTA; 100 μM angiotensin II; 37° C., 2 hours

Chain of hACE2 (Q9BYF1 18-805): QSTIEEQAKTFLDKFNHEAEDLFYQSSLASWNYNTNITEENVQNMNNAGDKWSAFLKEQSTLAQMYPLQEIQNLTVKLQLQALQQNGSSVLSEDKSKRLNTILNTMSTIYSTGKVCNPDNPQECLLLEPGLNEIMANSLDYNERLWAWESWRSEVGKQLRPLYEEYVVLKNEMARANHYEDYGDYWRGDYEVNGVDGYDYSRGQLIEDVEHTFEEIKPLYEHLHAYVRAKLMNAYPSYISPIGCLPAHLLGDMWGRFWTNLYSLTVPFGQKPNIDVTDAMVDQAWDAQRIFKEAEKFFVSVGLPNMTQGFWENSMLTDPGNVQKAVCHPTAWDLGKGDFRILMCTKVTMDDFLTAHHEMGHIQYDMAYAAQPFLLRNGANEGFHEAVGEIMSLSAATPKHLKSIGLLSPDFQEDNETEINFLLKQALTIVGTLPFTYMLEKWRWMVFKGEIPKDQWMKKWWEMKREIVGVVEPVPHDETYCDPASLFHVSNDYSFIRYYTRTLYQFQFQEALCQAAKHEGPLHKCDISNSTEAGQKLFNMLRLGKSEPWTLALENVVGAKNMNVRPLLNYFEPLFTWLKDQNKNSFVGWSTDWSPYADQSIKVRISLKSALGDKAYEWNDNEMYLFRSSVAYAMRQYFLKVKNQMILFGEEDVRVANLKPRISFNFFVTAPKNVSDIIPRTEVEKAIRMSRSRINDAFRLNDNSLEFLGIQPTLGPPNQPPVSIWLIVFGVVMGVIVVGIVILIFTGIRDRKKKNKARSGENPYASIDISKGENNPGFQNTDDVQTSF

| Compound | inhibition of hACE2 activity (angiotensin II cleavage) |
| --- | --- |
| O=C(O)CC(Cc1ccccc1)C(=O)O (centres unmarked) [benzyl succinate] | none of lisinopril, captopril, enalaprilat, and benzyl succinate (a carboxypeptidase A inhibitor) inhibits hACE2 activity |
| O=C(O)CN(CCN(CC(=O)O)CC(=O)O)CC(=O)O [EDTA] | inhibits hACE2 activity |
